# Source: ChEMBL document CHEMBL1126953, “Quinoxaline N-oxide containing potent angiotensin II receptor antagonists: synthesis, biological properties, and structure-activity relationships” (J Med Chem, 1993)
# Columns and labels:
# [1] = molecular target: T1, Angiotensin II receptor (AT-1) type-1 (Rattus norvegicus, UniProt P29089+P25095); experiment: Binding affinity of compound in presence of bovine serum albumin (BSA) at 0% against rat Angiotensin II receptor, type 1; assay type: cell-free
# T1 sequence (P29089 whole entry): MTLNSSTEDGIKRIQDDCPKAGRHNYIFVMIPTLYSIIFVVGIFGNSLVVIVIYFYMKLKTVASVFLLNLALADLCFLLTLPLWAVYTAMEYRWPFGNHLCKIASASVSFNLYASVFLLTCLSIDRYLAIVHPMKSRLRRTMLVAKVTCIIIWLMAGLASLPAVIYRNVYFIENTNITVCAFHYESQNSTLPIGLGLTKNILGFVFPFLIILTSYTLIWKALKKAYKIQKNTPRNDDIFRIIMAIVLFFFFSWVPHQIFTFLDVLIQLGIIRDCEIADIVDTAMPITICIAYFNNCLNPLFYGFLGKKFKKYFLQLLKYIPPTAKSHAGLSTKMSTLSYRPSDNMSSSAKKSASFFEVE
# T1 sequence (P25095 whole entry): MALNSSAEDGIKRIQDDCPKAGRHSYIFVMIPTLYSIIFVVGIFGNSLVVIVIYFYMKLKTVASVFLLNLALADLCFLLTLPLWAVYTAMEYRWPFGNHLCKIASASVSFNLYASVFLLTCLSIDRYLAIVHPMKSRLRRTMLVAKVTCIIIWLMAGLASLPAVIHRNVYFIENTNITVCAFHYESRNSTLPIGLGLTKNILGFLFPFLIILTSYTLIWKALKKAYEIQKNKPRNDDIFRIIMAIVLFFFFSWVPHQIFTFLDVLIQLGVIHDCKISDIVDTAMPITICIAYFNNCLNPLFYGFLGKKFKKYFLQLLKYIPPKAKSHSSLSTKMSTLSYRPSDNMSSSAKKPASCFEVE
# [2] = molecular target: T1, Angiotensin II receptor (AT-1) type-1; experiment: Binding affinity of compound in presence of bovine serum albumin (BSA) at 0.01% against rat Angiotensin II receptor, type 1; assay type: cell-free
# [3] = molecular target: T1, Angiotensin II receptor (AT-1) type-1; experiment: Binding affinity for Angiotensin II receptor, type 1 in rat adrenal cortical membranes using [125I]Sar1, Ile8-angiotensin II; assay type: cell membranes
# [4] = molecular target: Angiotensin II receptor type 1 (Oryctolagus cuniculus) (UniProt P34976); experiment: Antagonism of angiotensin II induced contraction of isolated rabbit aorta
# [5] = molecular target: T1, Angiotensin II receptor (AT-1) type-1; experiment: Binding affinity of compound in presence of bovine serum albumin (BSA) at 0% against rat adrenal Angiotensin II receptor, type 1; assay type: cell-free
# [6] = molecular target: T1, Angiotensin II receptor (AT-1) type-1; experiment: Binding affinity of compound in presence of bovine serum albumin (BSA) at 0.01% against rat adrenal Angiotensin II receptor, type 1; assay type: cell-free
# [7] = molecular target: T1, Angiotensin II receptor (AT-1) type-1; experiment: Binding affinity of compound in presence of bovine serum albumin (BSA) at 0.22% against rat adrenal Angiotensin II receptor, type 1; assay type: cell-free
# Sequence of Angiotensin II receptor type 1 (Oryctolagus cuniculus) (P34976 whole entry, looked up): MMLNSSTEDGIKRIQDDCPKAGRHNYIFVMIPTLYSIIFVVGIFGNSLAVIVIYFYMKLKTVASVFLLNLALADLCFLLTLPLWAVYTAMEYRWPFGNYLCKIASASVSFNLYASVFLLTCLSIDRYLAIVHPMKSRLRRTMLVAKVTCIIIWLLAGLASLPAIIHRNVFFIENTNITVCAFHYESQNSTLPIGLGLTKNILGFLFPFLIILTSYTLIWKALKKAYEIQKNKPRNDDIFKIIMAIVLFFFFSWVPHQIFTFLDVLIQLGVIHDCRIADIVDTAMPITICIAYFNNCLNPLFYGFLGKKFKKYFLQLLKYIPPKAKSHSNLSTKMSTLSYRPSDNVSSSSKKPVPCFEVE
Structure (SMILES),Ki [3] [nM],Kb [4] [nM],other results
CCCCc1nc2cccc(C(=O)O)c2nc1Oc1ccc(-c2ccccc2-c2nn[nH]n2)cc1,46,2.1,Ki [1]: 5.5 nM; Ki [2]: 46 nM
CCCCc1c(Oc2ccc(-c3ccccc3-c3nn[nH]n3)cc2)nc2c(C(=O)O)c(OCC)ccc2[n+]1[O-],1.3,0.026,Ki [5]: 0.4 nM; Ki [6]: 1.3 nM
CCCCc1nc2ccccc2[n+]([O-])c1Oc1ccc(-c2ccccc2-c2nn[nH]n2)cc1,4.5,0.44,
CCCCOc1ccc2c(nc(Oc3ccc(-c4ccccc4-c4nn[nH]n4)cc3)c(CCCC)[n+]2[O-])c1C(=O)O,50,0.27,
CCCCc1c(Oc2ccc(-c3ccccc3-c3nn[nH]n3)cc2)nc2c(C(=O)O)c(OCC(F)(F)F)ccc2[n+]1[O-],22,2,
CCCCc1c(Oc2ccc(-c3ccccc3-c3nn[nH]n3)cc2)nc2ccccc2[n+]1[O-],71,230,Ki [6]: 71 nM; Ki [7]: 580 nM
CCCCc1nc2ccc(F)c(C(=O)O)c2nc1Oc1ccc(-c2ccccc2-c2nn[nH]n2)cc1,21,0.97,
CCCCc1c(Oc2ccc(-c3ccccc3-c3nn[nH]n3)cc2)nc2c(C(=O)O)c(F)ccc2[n+]1[O-],9,0.58,
CCCc1nc2cccc(C(=O)O)c2nc1Oc1ccc(-c2ccccc2-c2nn[nH]n2)cc1,190,13,
CCCCc1c(Oc2ccc(-c3ccccc3-c3nn[nH]n3)cc2)nc2c(C(=O)O)c(OC(C)C)ccc2[n+]1[O-],28,,
CCCCc1nc2ccc(OCC)c(C(=O)O)c2nc1Oc1ccc(-c2ccccc2-c2nn[nH]n2)cc1,44,0.12,
CCCCc1c(Oc2ccc(-c3ccccc3-c3nn[nH]n3)cc2)nc2c(C(=O)O)c(N)ccc2[n+]1[O-],7.4,0.25,
CCCCc1c(Oc2ccc(-c3ccccc3-c3nn[nH]n3)cc2)nc2c(C(=O)O)c(OC)ccc2[n+]1[O-],17,0.13,
CCCCc1nc2ccccc2nc1Oc1ccc(-c2ccccc2-c2nn[nH]n2)cc1,137,290,Ki [7]: 2200 nM
CCCCc1c(Oc2ccc(-c3ccccc3-c3nn[nH]n3)cc2)nc2c(C(=O)O)c(OCCC)ccc2[n+]1[O-],68,0.19,
Cc1c(Oc2ccc(-c3ccccc3-c3nn[nH]n3)cc2)nc2ccccc2[n+]1[O-],550,480,Ki [6]: 550 nM; Ki [7]: 24400 nM
Cc1nc2ccccc2nc1Oc1ccc(-c2ccccc2-c2nn[nH]n2)cc1,,2300,
CCCCc1c(Oc2ccc(-c3ccccc3-c3nn[nH]n3)cc2)nc2c(C(=O)O)cccc2[n+]1[O-],,0.5,
